Patent publication US9040591B2, “Methods and compositions comprising at least one α3 βA4 nAChR antagonist or pharmaceutically acceptable salt thereof” (AGI Therapeutics Public Limited Company, priority 2003, dated 2015)
Structures can show the parent of a compound that is named as a salt.

Key:
[1] = Second clinical trial, treatment emergent effects associated with ganglion blocking activity; type: in vivo, human
Description: In a second clinical trial, the frequency of treatment emergent effects typically associated with “ganglion blocking” activity was assessed. The following treatment emergent effects were found: […]

[2] = Clinical study of transdermal mecamylamine patches in smokers, treatment emergent effects; type: in vivo, human; conditions: for Side effect: Constipation: transdermal patches of Example 1, smokers but otherwise healthy subjects
Text: The mecamylamine transdermal formulation is a transdermal patch that contains mecamylamine blended with an acrylic adhesive that is coated onto a printed backing to produce transdermal patches.

[3] = test system: patients with dominant chronic diarrhea symptoms (functional diarrhea); experiment: Example 3 randomized, double-blind, placebo-controlled forced dose escalation study in Functional Diarrhea; type: in vivo, human; conditions: for number of patients showing improvement in stool consistency / percent of patients showing improvement in stool consistency: modified per-protocol population
Text: Eight-two patients (both male and female) meeting ROME II criteria (modified) for Functional Diarrhea were randomized in the study. […] For example, the following table summarizes the number of patients showing “improvement” in stool consistency. Prior to treatment, patients were to be experiencing >50% of the time, a mushy/watery stool consistency in at least 75% of their daily stools. “Improvement” represents a patient experiencing <50% of the time, a mushy/watery stool consistency in at least 75% of daily stools.

[4] = Pharmacokinetics of oral conventional formulation in adults (Young et al. 2001); type: in vivo, human adults; conditions: expected
Description: Bear et al., Am. J. Physiol., 186, 180-86 (1956). […] Young et al., Clinical Therapeutics, 23(4) (2001). […] The typical dose used for treating hypertensive subjects is about 25 mg/day, and is dosed using conventional formulations.

[5] = 2.5 mg dose, conventional formulation, adults; cited from earlier work
[6] = transdermal patches of Example 1, smokers

In the case of `CNC1(C)C2CCC(C2)C1(C)C` (stereo not drawn) [Mecamylamine, N-2,3,3-tetramethylbicyclo-[2.2.1]heptan-2-amine], the “Side effect: Cardiac Disorder” value [1] is reported as 1.3%, the “Side effect: Constipation” value [1] is reported as 28.9% and the “Side effect: Dizziness” value [1] is reported as 4.0%. For the same compound, the “Side effect: Dry Mouth” value [1] was 3.4%, the “Side effect: Eye” value [1] was 0.7% and the “Side effect: Gastrointestinal” value [1] was 4.36%. The “Side effect: Nausea” value [1] was 5.4%, the “Side effect: Urinary Retention” value [1] was 0.7% and the “Side effect: Application” value [2, 6] was 25%. The “Side effect: Asthenia” value [2, 6] was 14%, the “Side effect: Dizziness” value [2, 6] was 17% and the “Side effect: Headache” value [2, 6] was 36%. For the same compound, the “Side effect: Insomnia” value [2, 6] was 14%, the “Side effect: Nausea” value [2, 6] was 15% and the “Side effect: Rash” value [2, 6] was 13%. For the same compound, the “Side effect: Constipation” value [2] was 42%, the “Side effect: Constipation” value ([2]; listed as mecamylamine) was 42% and the “overall incidence of adverse events versus placebo” value ([3]; 12-week study) was “similar”. The “changes in blood pressure” value ([3]; 12-week study, FIGS. 1 and 2) was “no clinically significant changes in blood pressure”, the “number of patients showing improvement in stool consistency” value (shortened to “number of patients showing improvement”) ([3]; Entire Study) was 8/18 and the “percent of patients showing improvement in stool consistency” value (“percent of patients showing improvement” below) ([3]; Entire Study) was 44.4%. The “number of patients showing improvement” value ([3]; Week 4 (2 mg/day)) was 8/18, the “percent of patients showing improvement” value ([3]; Week 4 (2 mg/day)) was 44.4% and the “number of patients showing improvement” value ([3]; Week 8 (4 mg/day)) was 8/18. The “percent of patients showing improvement” value ([3]; Week 8 (4 mg/day)) was 44.4%, the “number of patients showing improvement” value ([3]; Week 12 (6 mg/day)) was 9/18 and the “percent of patients showing improvement” value ([3]; Week 12 (6 mg/day)) was 50.0%. For the same compound, the “primary and secondary endpoints versus placebo” value ([3]; intent-to-treat analysis, entire 12 weeks of dose-escalation therapy) was “failed to show any statistically significant difference from placebo”, the “stool consistency versus placebo” value ([3]; intent-to-treat analysis, week 4 (2 mg/day)) was “improvement in stool consistency” and the “stool consistency versus placebo” value ([3]; modified per-protocol population (n=35), entire dose-escalation and each dose treatment phase) was “significant improvements in stool consistency”. The “24 hour plasma concentration level as % of peak plasma concentration” value [4] was “less than 25%” and the “time for which about 50% of the peak plasma concentration is maintained” value [4] was “about 14 hours”.
In the case of `CNC1(C)C2CCC(C2)C1(C)C` (stereo not drawn) [mecamylamine hydrochloride, N-2,3,3-tetramethylbicyclo[2.2.1]heptan-2-amine hydrochloride], the “maximum plasma concentration (Cmax)” value [5] is listed as “about 7.89 ng/mL”.
